Data reported in patent US20230414557A1, “NEW THERAPY CONCEPT FOR THE TREATMENT OF CORONA INFECTIONS, ESPECIALLY COVID-19 INFECTIONS” (priority 2020, published 2023).

What was measured:
[1] = test system: TNF-alpha (tumor necrosis factor-alpha); assay: production of TNF-alpha in human monocytes of volunteers; format: cell-based; conditions: 1,8-cineole alone
IL-1beta = assay: LPS-stimulated production of IL-1beta in human monocytes in vitro (ELISA); format: cell-based; conditions: for IL-1beta / effect vs. control inhibition (%): LPS-stimulated human monocytes
Description: In cell culture supernatants, the production of IL-1beta is determined by ELISA (Cayman Chemical, Ann Arbor, Michigan, USA).

IL-8 (interleukin-8) = assay: production of IL-8 in human monocytes of volunteers; format: cell-based; conditions: 1,8-cineole alone
COVID-19 [2] = assay: thrombocytes from patients suffering from COVID-19 incubated with 1,8-cineole; format: cell-based, human; conditions: thrombocytes from COVID-19 patients incubated with 1,8-cineole
Description: This antiviral effect of 1,8-cineole in COVID-19 infections is completely unexpected.

hydrogen peroxide (H2O2) = assay: production of hydrogen peroxide; format: cell-based; conditions: even at lower concentrations and in the therapeutic range
NO-production = NO-production in stimulated human monocytes in vitro; format: cell-based; conditions: 20 hours
[3] = cited from earlier work
[4] = test system: superoxide production (O2^−-production); assay: PMA-stimulated superoxide production (O2−-production) of human monocytes in vitro, INT formazan; format: cell-based; conditions: RPMI-1640, 20 hours
corona viruses = format: cell-based, human
[5] = test system: superoxide dismutases (SOD); assay: activity of superoxide dismutases; format: cell-based
COVID-19 [6] = conditions: human, in vivo; cited from earlier work
[7] = 1,8-cineole 0.0015 μg/ml (10^−8 mol/l)
[8] = 1,8-cineole 1.2 μg/ml (8 × 10^−6 mol/l)
[9] = 1,8-cineole 1.5 μg/ml (10^−5 mol/l)
[10] = 1,8-cineole 3.0 μg/ml (2 × 10^−5 mol/l)

CC12CCC(CC1)C(C)(C)O2 [1,8-cineole, 1,3,3-trimethyl-2-oxabicyclo[2.2.2]octane]
production of TNF-alpha [1]: significant inhibitory effect | monocyte IL-1beta production, result in words (IL-1beta; 10^−6 mol/l, compared with the control): significantly inhibited | IL-1beta (IL-1beta; 10^−6 mol/l, 20 hours): 3548 ± 600 pg/5 × 10^−4 cells | effect vs. control inhibition (%) (IL-1beta; 10^−6 mol/l, 20 hours): 32.4 ± 17% | production of IL-8 (IL-8 (interleukin-8)): significant inhibitory effect | course of infection, especially hypercytokinemia (COVID-19 [2]): prevented or attenuated | production of H2O2 (hydrogen peroxide (H2O2)): inhibits | NO-production (NO-production; low subtherapeutic concentrations of 1,8-cineole): inhibit NO-production | NO-production (NO-production; therapeutic dose range of 1,8-cineole): strong or significant stimulatory effects on NO-production | solubility in water [3]: insoluble in water | INT-formazan [4, 7]: 5364 ± 229 nmol/10^5 | comparison to control (%) [4, 7]: +27.6 ± 4% | INT-formazan [4, 8]: 4099 ± 234 nmol/10^5 | comparison to control (%) [4, 8]: −2.5 ± 6% | INT-formazan [4, 9]: 2438 ± 389 nmol/10^5 | comparison to control (%) [4, 9]: −42 ± 16% | INT-formazan [4, 10]: 634 ± 139 nmol/10^5 | comparison to control (%) [4, 10]: −84.9 ± 22% | outbreak of infection, especially hypercytokinemia (corona viruses): prevented or reduced | virus replication and production of hyperinflammatory cytokines in thrombocytes (corona viruses; healthy thrombocytes incubated with COVID-19, subsequently incubation with 1,8-cineole): inhibited | superoxide dismutase activity [5]: partially inhibited

CCN(CC)CCCC(C)Nc1ccnc2cc(Cl)ccc12 (stereo not shown) [Chloroquine]
efficacy in COVID-19 (COVID-19 [6]): no evidence of efficacy

C[C@@H]1C[C@H]2[C@@H]3CCC4=CC(=O)C=C[C@]4(C)[C@@]3(F)[C@@H](O)C[C@]2(C)[C@@]1(O)C(=O)CO [dexamethasone, 9-fluoro-16alpha-methylprednisolone]
IL-1beta (IL-1beta; dex. 10^−9 mol/l): 2655 ± 546 pg/5 × 10^−4 cells | effect vs. control inhibition (%) (IL-1beta; dex. 10^−9 mol/l): 49.5 ± 20% | IL-1beta (IL-1beta; dex. 10^−12 mol/l): 5245 ± 1027 pg/5 × 10^−4 cells | effect vs. control inhibition (%) (IL-1beta; dex. 10^−12 mol/l): 0.1 ± 19%

CCN(CCO)CCCC(C)Nc1ccnc2cc(Cl)ccc12 (stereo not shown) [hydroxychloroquine]
efficacy in COVID-19 (COVID-19 [6]): no evidence of efficacy

Tocilizumab: monoclonal antibody approved for rheumatoid arthritis and cytokine release syndrome
efficacy in COVID-19 (COVID-19 [6]): ineffective
